Measured values from ChEMBL document CHEMBL3991601, “The target landscape of clinical kinase drugs” (Science, 2017).
Calls of active or inactive are those of the source. Cut-off read from the data, not from the text of the source, for most assays here: actives have a measured Kd and inactives only a lower limit.

These compounds were tested against AP2-associated protein kinase 1 (Homo sapiens, UniProt Q2M2I8).
Note: in the data inactive means no Kd found up to 30 µM.

AP2-associated protein kinase 1, sequence (Q2M2I8 whole entry): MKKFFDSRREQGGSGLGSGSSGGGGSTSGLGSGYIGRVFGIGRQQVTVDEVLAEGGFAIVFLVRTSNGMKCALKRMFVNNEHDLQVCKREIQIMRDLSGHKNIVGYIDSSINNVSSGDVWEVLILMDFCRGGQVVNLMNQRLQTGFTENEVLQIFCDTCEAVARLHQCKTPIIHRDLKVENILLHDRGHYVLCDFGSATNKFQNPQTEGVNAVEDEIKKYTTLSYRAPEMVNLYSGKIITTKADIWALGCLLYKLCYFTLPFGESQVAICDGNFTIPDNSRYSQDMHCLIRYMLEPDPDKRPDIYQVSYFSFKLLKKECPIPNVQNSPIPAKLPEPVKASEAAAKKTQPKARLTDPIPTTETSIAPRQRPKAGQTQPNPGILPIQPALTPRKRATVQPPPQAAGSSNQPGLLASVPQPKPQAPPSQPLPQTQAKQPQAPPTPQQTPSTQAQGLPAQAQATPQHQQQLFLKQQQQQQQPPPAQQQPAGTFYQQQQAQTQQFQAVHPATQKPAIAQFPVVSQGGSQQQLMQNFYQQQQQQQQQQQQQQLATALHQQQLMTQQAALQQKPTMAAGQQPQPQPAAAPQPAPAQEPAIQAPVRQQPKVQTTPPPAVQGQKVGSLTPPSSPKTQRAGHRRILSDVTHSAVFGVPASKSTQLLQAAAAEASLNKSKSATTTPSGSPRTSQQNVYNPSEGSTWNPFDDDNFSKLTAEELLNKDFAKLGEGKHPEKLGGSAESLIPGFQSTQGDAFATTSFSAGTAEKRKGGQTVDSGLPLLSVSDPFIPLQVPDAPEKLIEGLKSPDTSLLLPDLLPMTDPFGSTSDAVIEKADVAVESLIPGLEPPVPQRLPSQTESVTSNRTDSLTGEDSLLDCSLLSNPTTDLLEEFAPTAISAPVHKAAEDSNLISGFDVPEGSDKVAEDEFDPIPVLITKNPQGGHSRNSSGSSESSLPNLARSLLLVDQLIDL

Row | Compound | Kd
1 | N[C@@H]1CCCN(c2c(/C=C3\SC(=O)NC3=O)cccc2-c2ccccc2)C1 | > 30 µM (inactive)
2 | Cc1ccc(S(=O)(=O)Nc2nc3ccccc3nc2Nc2ccc3nsnc3c2)cc1 | > 30 µM (inactive)
3 | CN1CC[C@@H](c2c(O)cc(O)c3c(=O)cc(-c4ccccc4Cl)oc23)[C@@H]1CO | > 30 µM (inactive)
4 | Cc1cc(-c2cc(O)ccc2Cl)cc2nnc(Nc3ccc(OCCN4CCCC4)cc3)nc12 | > 30 µM (inactive)
5 | CCN1CCN(Cc2ccc(-c3cc4c(N[C@H](C)c5ccccc5)ncnc4[nH]3)cc2)CC1 [AEE-788] | > 30 µM (inactive)
6 | Cn1ncc(Cl)c1-c1cc(C(=O)N[C@H](CN)Cc2cccc(F)c2)sc1Cl [AFURESERTIB] | > 30 µM (inactive)
7 | COc1cc(N2CCC(N3CCN(C)CC3)CC2)ccc1Nc1ncnc(Nc2ccccc2S(=O)(=O)C(C)C)n1 [ASP-3026] | 1.32 µM (active)

Each compound was assayed against Mitogen-activated protein kinase 10 (Homo sapiens, UniProt P53779).
Mitogen-activated protein kinase 10, sequence (P53779 whole entry): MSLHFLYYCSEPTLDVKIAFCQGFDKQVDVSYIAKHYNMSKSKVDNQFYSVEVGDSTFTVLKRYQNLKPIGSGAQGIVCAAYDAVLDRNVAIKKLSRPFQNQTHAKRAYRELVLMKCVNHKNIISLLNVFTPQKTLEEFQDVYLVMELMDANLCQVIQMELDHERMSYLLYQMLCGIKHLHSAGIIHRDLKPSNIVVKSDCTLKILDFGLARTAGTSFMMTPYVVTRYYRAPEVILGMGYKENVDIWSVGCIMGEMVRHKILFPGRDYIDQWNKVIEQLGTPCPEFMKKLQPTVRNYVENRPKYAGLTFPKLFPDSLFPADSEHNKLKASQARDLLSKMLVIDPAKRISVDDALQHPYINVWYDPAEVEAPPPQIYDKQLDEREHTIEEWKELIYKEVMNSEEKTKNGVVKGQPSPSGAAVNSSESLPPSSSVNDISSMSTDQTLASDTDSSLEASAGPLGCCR

Row | Compound | Kd
8 | N[C@@H]1CCCN(c2c(/C=C3\SC(=O)NC3=O)cccc2-c2ccccc2)C1 | > 30 µM (inactive)
9 | Cc1ccc(S(=O)(=O)Nc2nc3ccccc3nc2Nc2ccc3nsnc3c2)cc1 | > 30 µM (inactive)
10 | CN1CC[C@@H](c2c(O)cc(O)c3c(=O)cc(-c4ccccc4Cl)oc23)[C@@H]1CO | > 30 µM (inactive)
11 | Cc1cc(-c2cc(O)ccc2Cl)cc2nnc(Nc3ccc(OCCN4CCCC4)cc3)nc12 | > 30 µM (inactive)
12 | CCN1CCN(Cc2ccc(-c3cc4c(N[C@H](C)c5ccccc5)ncnc4[nH]3)cc2)CC1 [AEE-788] | > 30 µM (inactive)
13 | Cn1ncc(Cl)c1-c1cc(C(=O)N[C@H](CN)Cc2cccc(F)c2)sc1Cl [AFURESERTIB] | > 30 µM (inactive)
14 | COc1cc(N2CCC(N3CCN(C)CC3)CC2)ccc1Nc1ncnc(Nc2ccccc2S(=O)(=O)C(C)C)n1 [ASP-3026] | > 30 µM (inactive)

The compounds below were run against cAMP-dependent protein kinase type II-alpha regulatory subunit (Homo sapiens, UniProt P13861).
cAMP-dependent protein kinase type II-alpha regulatory subunit, sequence (P13861 whole entry): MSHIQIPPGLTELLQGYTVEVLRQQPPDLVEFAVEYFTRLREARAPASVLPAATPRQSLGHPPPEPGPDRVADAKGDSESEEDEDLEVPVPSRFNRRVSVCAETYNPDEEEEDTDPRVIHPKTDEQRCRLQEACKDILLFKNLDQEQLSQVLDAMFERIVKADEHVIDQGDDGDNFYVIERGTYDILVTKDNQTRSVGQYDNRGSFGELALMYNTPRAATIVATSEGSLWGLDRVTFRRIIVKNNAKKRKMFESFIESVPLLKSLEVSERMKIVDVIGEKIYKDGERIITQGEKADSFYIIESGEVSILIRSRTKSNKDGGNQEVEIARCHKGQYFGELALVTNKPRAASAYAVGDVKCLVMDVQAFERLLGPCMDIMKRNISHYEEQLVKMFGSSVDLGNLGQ

Row | Compound | Kd
15 | N[C@@H]1CCCN(c2c(/C=C3\SC(=O)NC3=O)cccc2-c2ccccc2)C1 | > 30 µM (inactive)
16 | CN1CC[C@@H](c2c(O)cc(O)c3c(=O)cc(-c4ccccc4Cl)oc23)[C@@H]1CO | > 30 µM (inactive)
17 | Cc1cc(-c2cc(O)ccc2Cl)cc2nnc(Nc3ccc(OCCN4CCCC4)cc3)nc12 | > 30 µM (inactive)
18 | CCN1CCN(Cc2ccc(-c3cc4c(N[C@H](C)c5ccccc5)ncnc4[nH]3)cc2)CC1 [AEE-788] | > 30 µM (inactive)
19 | Cn1ncc(Cl)c1-c1cc(C(=O)N[C@H](CN)Cc2cccc(F)c2)sc1Cl [AFURESERTIB] | > 30 µM (inactive)
20 | COc1cc(N2CCC(N3CCN(C)CC3)CC2)ccc1Nc1ncnc(Nc2ccccc2S(=O)(=O)C(C)C)n1 [ASP-3026] | > 30 µM (inactive)

The compounds below were run against T1, Glycogen phosphorylase, brain form (Homo sapiens, UniProt P11216).
T1 sequence (P11216 whole entry): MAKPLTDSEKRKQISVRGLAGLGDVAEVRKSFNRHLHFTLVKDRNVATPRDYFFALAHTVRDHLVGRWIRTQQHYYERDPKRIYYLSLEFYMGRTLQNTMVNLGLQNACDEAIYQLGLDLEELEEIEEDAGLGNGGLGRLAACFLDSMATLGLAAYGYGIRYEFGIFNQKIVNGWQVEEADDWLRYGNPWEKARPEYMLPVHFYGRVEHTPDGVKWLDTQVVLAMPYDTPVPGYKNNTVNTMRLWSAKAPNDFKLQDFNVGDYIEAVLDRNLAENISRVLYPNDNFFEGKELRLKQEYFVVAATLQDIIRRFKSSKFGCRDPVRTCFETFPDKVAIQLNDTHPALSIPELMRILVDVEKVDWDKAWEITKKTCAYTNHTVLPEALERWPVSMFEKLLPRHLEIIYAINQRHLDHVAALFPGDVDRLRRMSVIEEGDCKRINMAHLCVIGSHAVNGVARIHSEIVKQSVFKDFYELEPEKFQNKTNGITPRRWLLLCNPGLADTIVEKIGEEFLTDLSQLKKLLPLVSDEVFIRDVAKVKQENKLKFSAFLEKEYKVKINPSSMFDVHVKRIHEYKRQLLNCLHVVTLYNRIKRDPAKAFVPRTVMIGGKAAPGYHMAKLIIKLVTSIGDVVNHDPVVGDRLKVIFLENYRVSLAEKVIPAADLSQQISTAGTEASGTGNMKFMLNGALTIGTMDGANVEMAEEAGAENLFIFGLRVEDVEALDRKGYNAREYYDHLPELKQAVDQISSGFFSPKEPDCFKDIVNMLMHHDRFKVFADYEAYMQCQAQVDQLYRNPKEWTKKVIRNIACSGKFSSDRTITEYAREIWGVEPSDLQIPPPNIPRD

Row | Compound | Kd
21 | N[C@@H]1CCCN(c2c(/C=C3\SC(=O)NC3=O)cccc2-c2ccccc2)C1 | > 30 µM (inactive)
22 | Cc1ccc(S(=O)(=O)Nc2nc3ccccc3nc2Nc2ccc3nsnc3c2)cc1 | > 30 µM (inactive)
23 | CN1CC[C@@H](c2c(O)cc(O)c3c(=O)cc(-c4ccccc4Cl)oc23)[C@@H]1CO | > 30 µM (inactive)
24 | Cc1cc(-c2cc(O)ccc2Cl)cc2nnc(Nc3ccc(OCCN4CCCC4)cc3)nc12 | > 30 µM (inactive)
25 | CCN1CCN(Cc2ccc(-c3cc4c(N[C@H](C)c5ccccc5)ncnc4[nH]3)cc2)CC1 [AEE-788] | > 30 µM (inactive)
26 | Cn1ncc(Cl)c1-c1cc(C(=O)N[C@H](CN)Cc2cccc(F)c2)sc1Cl [AFURESERTIB] | > 30 µM (inactive)
27 | COc1cc(N2CCC(N3CCN(C)CC3)CC2)ccc1Nc1ncnc(Nc2ccccc2S(=O)(=O)C(C)C)n1 [ASP-3026] | > 30 µM (inactive)

These compounds were tested against T2, Serine/threonine-protein kinase TAO2 (Homo sapiens, UniProt Q9UL54).
T2 sequence (Q9UL54 whole entry): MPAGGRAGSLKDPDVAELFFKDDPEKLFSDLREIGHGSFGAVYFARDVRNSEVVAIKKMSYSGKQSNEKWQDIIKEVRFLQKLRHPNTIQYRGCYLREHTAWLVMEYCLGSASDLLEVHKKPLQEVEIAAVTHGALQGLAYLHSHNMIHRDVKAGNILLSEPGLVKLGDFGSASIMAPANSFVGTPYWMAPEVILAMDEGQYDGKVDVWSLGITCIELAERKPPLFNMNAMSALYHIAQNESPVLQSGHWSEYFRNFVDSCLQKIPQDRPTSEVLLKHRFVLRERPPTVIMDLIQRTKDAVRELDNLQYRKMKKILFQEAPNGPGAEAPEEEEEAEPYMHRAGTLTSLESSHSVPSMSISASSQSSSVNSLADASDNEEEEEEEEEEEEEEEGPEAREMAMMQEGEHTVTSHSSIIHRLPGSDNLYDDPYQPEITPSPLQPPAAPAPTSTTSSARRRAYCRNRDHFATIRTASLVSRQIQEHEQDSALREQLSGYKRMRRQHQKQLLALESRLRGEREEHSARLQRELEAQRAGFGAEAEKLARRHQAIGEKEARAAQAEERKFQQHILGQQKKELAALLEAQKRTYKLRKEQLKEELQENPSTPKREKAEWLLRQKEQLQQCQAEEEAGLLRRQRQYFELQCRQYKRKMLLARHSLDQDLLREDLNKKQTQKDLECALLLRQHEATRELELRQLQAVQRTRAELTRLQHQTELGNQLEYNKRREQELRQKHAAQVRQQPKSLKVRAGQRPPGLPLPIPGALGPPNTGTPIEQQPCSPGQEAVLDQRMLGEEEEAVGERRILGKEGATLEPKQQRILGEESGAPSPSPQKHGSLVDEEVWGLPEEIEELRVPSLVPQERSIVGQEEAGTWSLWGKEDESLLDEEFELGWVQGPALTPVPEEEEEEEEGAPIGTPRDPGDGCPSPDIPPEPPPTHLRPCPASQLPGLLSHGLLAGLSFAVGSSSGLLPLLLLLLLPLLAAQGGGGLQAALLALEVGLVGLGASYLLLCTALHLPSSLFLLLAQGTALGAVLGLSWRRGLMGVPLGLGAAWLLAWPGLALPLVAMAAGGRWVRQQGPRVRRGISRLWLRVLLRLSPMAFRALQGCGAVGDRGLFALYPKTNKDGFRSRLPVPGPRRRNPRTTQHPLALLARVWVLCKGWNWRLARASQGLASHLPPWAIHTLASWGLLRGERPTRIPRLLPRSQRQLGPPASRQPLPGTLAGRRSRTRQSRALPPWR

Row | Compound | Kd
28 | N[C@@H]1CCCN(c2c(/C=C3\SC(=O)NC3=O)cccc2-c2ccccc2)C1 | > 30 µM (inactive)
29 | Cc1ccc(S(=O)(=O)Nc2nc3ccccc3nc2Nc2ccc3nsnc3c2)cc1 | > 30 µM (inactive)
30 | CN1CC[C@@H](c2c(O)cc(O)c3c(=O)cc(-c4ccccc4Cl)oc23)[C@@H]1CO | > 30 µM (inactive)
31 | Cc1cc(-c2cc(O)ccc2Cl)cc2nnc(Nc3ccc(OCCN4CCCC4)cc3)nc12 | > 30 µM (inactive)
32 | CCN1CCN(Cc2ccc(-c3cc4c(N[C@H](C)c5ccccc5)ncnc4[nH]3)cc2)CC1 [AEE-788] | > 30 µM (inactive)
33 | Cn1ncc(Cl)c1-c1cc(C(=O)N[C@H](CN)Cc2cccc(F)c2)sc1Cl [AFURESERTIB] | > 30 µM (inactive)
34 | COc1cc(N2CCC(N3CCN(C)CC3)CC2)ccc1Nc1ncnc(Nc2ccccc2S(=O)(=O)C(C)C)n1 [ASP-3026] | > 30 µM (inactive)
